Data from patent publication US11999677B2, “Benzylamino-oxoethyl benzamide analogs and methods of use” (The Board of Regents of the University of Oklahoma, priority 2018, dated 2024).
Entries after “also recorded” stand apart in the source; their conditions may differ. Like-named read-outs stand apart in the source and are kept apart here.

Key:
[1] = test system: pancreatic β-cells; settings: cited from earlier work
[2] = Solubility assay: turbidity in water, absorbance at 620 nm; assay type: physicochemical; settings: pure H2O with 1% DMSO, 37° C., 1-2 h shaking, absorbance 620 nm; compared with compound 1
Experimental: Aqueous solubility was assessed as the degree of turbidity of compound in aqueous solutions, detected by absorbance at 620 nm. Higher turbidity indicated lower solubility. The experiments were performed in triplicate, with the results as the means±SD of triplicate wells.
Each compound was prepared at concentrations from 40 mM to 0.1 mM in DMSO in a serial-dilution manner. 2 μL of each of the above compound solutions was then dispensed directly to ˜198 μL of pure H2O in a 96-well white clear bottom microplate. Resulting solutions were shaken at 37° C. temperature 1-2 h on a rotary shaker at varying shaking rates to reach equilibrium solubility. The turbidity of the solution was measured using UV-visible spectrophotometry at 620 nm.
We investigated whether the compounds of the present disclosure have improved aqueous solubility. Using a thermodynamic turbidimetric assay we evaluated the aqueous solubility of several of the newly synthesized compounds.

[3] = test system: INS-1 cells; test: Cell viability assay: INS-1 β-cells co-treated with compound and tunicamycin (Tm), CellTiter-Glo intracellular ATP; assay type: cell-based, rat; settings: for Max Activity (%) / Emax: % rescue from Tm (0.15 μg/mL)-induced reduction of INS-1 cell viability, intracellular ATP, 72 h, Tm alone = 0%, DMSO control without Tm = 100%; for EC50: ten 2-fold serial titration points, triplicate, read-out: EC50 (μM), concentration that reaches half-maximal activity for INS-1 cell viability; for Emax: INS1, 72 h, read-out: Max Activity (%); for β-cell protective activity against Tm (in words): INS-1 cells in the presence of Tm
Experimental: INS-1 cells were cultured in RPMI 1640 medium (Corning) supplemented with 10% FBS (Atlanta Biologicals), 10 mM HEPES (Gibco-Life Technologies), 1 mM sodium pyruvate (Corning), 50 μM 2-mercaptoethanol (Sigma-Aldrich), and antibiotics (100 UI/mL penicillin and 100 µg/mL streptomycin; Corning) and maintained in a humidified 5% CO2 atmosphere at 37° C.
INS-1 cells were resuspended in RPMI 1640 medium containing 10% FBS and plated at 5×10^3 cells/(40 μL.well) into white clear bottom 384-well plates (Greiner) using an automated liquid handler (Biotek). After 24 h incubation at 37° C., library compounds were added to the wells at the indicated concentration using a pin-transfer robot (PerkinElmer). Tunicamycin (Tm) in RPMI 1640 medium containing 10% FBS was then added at a final concentration of 0.15 μg/mL. After 72 h, the medium was removed and 20 μL of CellTiter-Glo reagent which measures intracellular ATP levels as an indicator of viability (Promega) was added. Luminescence was measured 10 min later using an Envision plate reader (PerkinElmer).
We designed and synthesized novel benzylamino-oxoethyl benzamide analogs (5a-q, Table 1) and studied their effects on β-cell protection against ER stress. The analogs were tested for the viability of rat INS-1 β-cells in the presence of Tm, a potent ER stress inducer that inhibits N-linked glycosylation of proteins. The maximum activities and the concentrations that reach half-maximal activity (EC50) of the compounds were evaluated by the degree of increase in viability of INS-1 cells co-treated with the compounds in the presence of Tm compared with Tm treatment alone.

[4] = Rattus norvegicus, INS1, INS-1 cells with Tm 0.15 μg/mL

| Compound | protective activity for pancreatic β-cells against ER stress (previously shown) [1] | aqueous solubility (turbidimetric, in words) [2] | Max Activity (%) [3] | EC50 ([3]; INS-1 cells with Tm 0.15 μg/mL) [µM] | Emax ([3]; Rattus norvegicus) [%] | EC50 [3, 4] [µM] | β-cell protective activity against Tm (in words) [3] |
| --- | --- | --- | --- | --- | --- | --- | --- |
| Cc1ccc(C)c(NC(=O)c2nnn(-c3cccc(Cl)c3C)c2C)c1 [Compound 1, 1-(3-chloro-2-methylphenyl)-N-(2,5-dimethylphenyl)-5-methyl-1H-1,2,3-triazole-4-carboxamide, reference compound] | protective activity | sub-optimal aqueous solubility; also recorded: poor water solubility |  |  |  |  |  |
| Cc1ccc(C)c(CNC(=O)CNC(=O)c2cccc(Cl)c2C)c1 [Compound 5a, 3-Chloro-N-(2-((2,5-dimethylbenzyl)amino)-2-oxoethyl)-2-methylbenzamide] |  |  | 45% | 18 ± 4 | 45 | 18.6 |  |
| Cc1c(Cl)cccc1C(=O)NCC(=O)NCc1ccccn1 [Compound 5b, 3-Chloro-2-methyl-N-(2-oxo-2-((pyridin-2-ylmethyl)amino)ethyl)benzamide] |  |  | 16% |  | 16 | 38 ± 9 |  |
| Cc1c(Cl)cccc1C(=O)NCC(=O)Nc1ccc2nc[nH]c2c1 [Compound 5c, N-(2-((1H-benzo[d]imidazol-6-yl)amino)-2-oxoethyl)-3-chloro-2-methylbenzamide] |  |  |  |  | 0 |  |  |
| COc1ccc(CNC(=O)CNC(=O)c2cccc(Cl)c2C)cc1 [Compound 5d, 3-Chloro-N-(2-((4-methoxybenzyl)amino)-2-oxoethyl)-2-methylbenzamide] |  |  | 55% |  | 41 to 55 | 32 ± 7 |  |
| Cc1c(Cl)cccc1C(=O)NCC(=O)NCc1ccc(S(N)(=O)=O)cc1 [Compound 5e, 3-Chloro-2-methyl-N-(2-oxo-2-((4-sulfamoylbenzyl)amino)ethyl)benzamide] |  |  | 52% |  | 41 to 55 | 40 ± 12 |  |
| Cc1c(Cl)cccc1C(=O)NCC(=O)NCCc1ccc(O)cc1 [Compound 5f, 3-Chloro-N-(2-((4-hydroxyphenethyl)amino)-2-oxoethyl)-2-methylbenzamide] |  |  | 41% |  | 41 to 55 | 34 ± 8 |  |
| Cc1c(Cl)cccc1C(=O)NCC(=O)NCc1ccc(C(F)(F)F)cc1 [Compound 5g, 3-Chloro-2-methyl-N-(2-oxo-2-((4-(trifluoromethyl)benzyl)amino)ethyl)benzamide] |  | improved water solubility | 88% |  | 88 | 13 ± 1 |  |
| COc1cc(CNC(=O)CNC(=O)c2cccc(Cl)c2C)ccc1O [Compound 5h, 3-Chloro-N-(2-((4-hydroxy-3-methoxybenzyl)amino)-2-oxoethyl)-2-methylbenzamide] |  | improved water solubility | 100% |  | 100 | 10 ± 2 |  |
| Cc1c(Cl)cccc1C(=O)NCC(=O)NCc1cccc(C(F)(F)F)c1 [Compound 5i, 3-Chloro-2-methyl-N-(2-oxo-2-((3-(trifluoromethyl)benzyl)amino)ethyl)benzamide] |  |  | 46% |  | 46 | 32 ± 7 |  |
| O=C(CNC(=O)c1ccccc1)NCc1ccc(C(F)(F)F)cc1 [Compound 5j, N-(2-Oxo-2-((4-(trifluoromethyl)benzyl)amino)ethyl)benzamide] |  |  | 35% | 43 ± 11 | 35 |  |  |
| CCc1ccc(C(=O)NCC(=O)NCc2ccc(C(F)(F)F)cc2)cc1 [Compound 5k, 4-Ethyl-N-(2-oxo-2-((4-(trifluoromethyl)benzyl)amino)ethyl)benzamide] |  |  | 42% | 45 ± 8 | 42 |  |  |
| O=C(CNC(=O)c1ccc(F)cc1)NCc1ccc(C(F)(F)F)cc1 [Compound 5l, 4-fluoro-N-(2-oxo-2-((4-(trifluoromethyl)benzyl)amino)ethyl)benzamide] |  |  | 12% |  | 12 | 41 ± 6 |  |
| O=C(CNC(=O)c1cccc(O)c1)NCc1ccc(C(F)(F)F)cc1 [Compound 5m, 3-Hydroxy-N-(2-oxo-2-((4-(trifluoromethyl)benzyl)amino)ethyl)benzamide] |  | improved water solubility | 100% |  | 100 | 0.1 |  |
| COc1cc(CNC(=O)CNC(=O)c2cccc(O)c2)ccc1O [Compound 5n, 3-Hydroxy-N-(2-((4-hydroxy-3-methoxybenzyl)amino)-2-oxoethyl)benzamide] |  |  |  |  | 30 | 65 ± 8 | significantly compromised activity |
| COc1cc(C(=O)NCC(=O)NCc2ccc(C(F)(F)F)cc2)ccc1O [Compound 5o, 4-hydroxy-3-methoxy-N-(2-oxo-2-((4-(trifluoromethyl)benzyl)amino)ethyl)benzamide] |  |  |  |  | 43 | 29 ± 6 | significantly compromised activity |
| Cc1c(Cl)cccc1C(=O)NC(C)C(=O)NCc1ccc(C(F)(F)F)cc1 (stereo not drawn) [Compound 5p, 3-Chloro-2-methyl-N-(1-oxo-1-((4-(trifluoromethyl)benzyl)amino)propan-2-yl)benzamide] |  |  |  |  | 34 | 63 ± 4 | significantly less or not active |
| Cc1c(Cl)cccc1C(=O)NC(Cc1ccc(O)cc1)C(=O)NCc1ccc(C(F)(F)F)cc1 (stereo not drawn) [Compound 5q, 3-Chloro-N-(3-(4-hydroxyphenyl)-1-oxo-1-((4-(trifluoromethyl)benzyl)amino)propan-2-yl)-2-methylbenzamide] |  |  | Cytotoxic |  |  |  | significantly less or not active |
